US20240131013A1, “TETRAHYDRO-1H-PYRIDO[3,4-b]INDOLE ANTI-ESTROGENIC DRUGS” (Olema Pharmaceuticals, Inc., priority 2015, published 2024)
“Also recorded” adds a separate entry of the source.

How the values were obtained:
[1] = system: AP activity in ECC-1 cells; test: Alkaline phosphatase (AP) assay in ECC-1 uterine cells co-treated with 500 pM E2, antagonist mode; assay type: cell-based, human; conditions: for AP Antagonist Act. (% of E2): ECC-1 cells, co-treated with 500 pM E2
Procedure: Method for performing the alkaline phosphatase (AP) assay. ECC-1 cells were trypsinized and resuspended in hormone-depleted media and plated at a density of 15k cells per well into a 96-well plate for at least 4 hours. Cells were treated with antiestrogens for 3 days and plates were subsequently frozen at −80° C. […] AP activity was normalized to the activity of E2 alone.

ERα [2] = target: T1, ERα (Homo sapiens (Human), UniProt P03372); test: ERα binding, LanthaScreen Competitive Binding Assay (TR-FRET)
From the text: Compounds were screened for their ability to displace a fluorescent labelled tracer ERα ligand via time resolved fluorescent energy transfer using the LanthaScreen Competitive Binding Assay screening service (Thermo Fisher Scientific).
Target sequence in this assay (P03372 whole entry, looked up): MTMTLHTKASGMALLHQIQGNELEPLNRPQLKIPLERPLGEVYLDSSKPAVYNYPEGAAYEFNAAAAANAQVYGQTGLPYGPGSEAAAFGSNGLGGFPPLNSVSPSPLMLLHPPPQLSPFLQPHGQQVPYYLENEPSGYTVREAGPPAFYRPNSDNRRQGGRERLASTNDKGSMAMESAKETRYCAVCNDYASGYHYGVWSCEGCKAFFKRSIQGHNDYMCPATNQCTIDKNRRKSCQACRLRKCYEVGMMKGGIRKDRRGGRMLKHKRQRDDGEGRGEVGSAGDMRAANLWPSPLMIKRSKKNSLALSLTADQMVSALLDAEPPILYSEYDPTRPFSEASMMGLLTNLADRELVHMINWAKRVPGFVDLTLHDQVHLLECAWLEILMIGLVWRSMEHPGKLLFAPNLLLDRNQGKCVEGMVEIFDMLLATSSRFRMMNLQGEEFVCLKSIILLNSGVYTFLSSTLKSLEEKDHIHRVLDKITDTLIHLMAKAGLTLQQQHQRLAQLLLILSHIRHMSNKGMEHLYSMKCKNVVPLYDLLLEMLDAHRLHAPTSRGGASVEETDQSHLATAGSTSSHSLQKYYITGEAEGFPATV

[3] = Pharmacokinetics in mice after oral gavage; assay type: in vivo, BALB/c female mice; conditions: 5 mg/kg oral gavage; for Oral drug exposure, free fraction taken into account: mice, 0-24 hours
Procedure: Pharmacokinetics were studied in BALB/c female mice. For each arm, three BALB/c female mice were given 5 mg/kg of compound in 0.5% CMC formulation by oral gavage. Concentration of compounds in mouse plasma and their metabolites were analyzed at each time point using LC-MS/MS. The concentrations were adjusted for the free fraction of drug in mouse plasma (method below). Area under the curve was calculated using the trapezoidal rule for 0-24 hours.

[4] = system: AP activity in ECC-1 cells; test: Alkaline phosphatase (AP) assay in ECC-1 uterine cells, agonist mode; assay type: cell-based, human; conditions: for AP Agonist Act. (% of E2): ECC-1 cells, without E2; for Induction of Alkaline Phosphatase (AP) % E2: mean of n experiments; for Induction of AP activity in uterine cells (% E2): representative result
Procedure: Method for performing the alkaline phosphatase (AP) assay. ECC-1 cells were trypsinized and resuspended in hormone-depleted media and plated at a density of 15k cells per well into a 96-well plate for at least 4 hours. Cells were treated with antiestrogens for 3 days and plates were subsequently frozen at −80° C. Thawed plates were incubated with a chromogenic substrate of AP, p-nitrophenyl phosphate (Thermo Fisher Scientific), for 40 minutes at 40° C. and absorbances were read at 405 nm. AP activity was normalized to the activity of E2 alone. […] A representative result for induction of AP activity in uterine cells (% E2) is shown below in tabular form: […]

ERα [5] = target: T1, ERα; test: ERα levels in breast cells, in-cell western (Colorimetric In-Cell ELISA); assay type: cell-based
Procedure: IC50's were calculated using the least squares fit method. Error bars represent S.E.M from triplicate wells.
Target sequence in this assay (P03372 whole entry): as the sequence (P03372 whole entry, looked up) above

[6] = system: Clone 18 cells (MCF7/Her2/neu); test: Xenograft study, MCF7/Her2/neu tumors in mice; assay type: in vivo, athymic ovariectomized nu/nu mice; conditions: oral gavage, doses as low as 10 mg/kg
Procedure: Xenograft studies were conducted by the Preclinical Therapeutics Core at the University of California, San Francisco in accordance with the Institutional Animal Care and Use Committee (IACUC) guidelines. Clone 18 cells (MCF7/Her2/neu) cells were grown in culture and implanted into athymic ovariectomized nu/nu mice. To stimulate tumor growth 0.36 mg estradiol 90 day release pellets (Innovative Research, Saratoga, FL) were implanted along with cells. When tumors reached 150-250 cubic millimeters the pellets were exchanged for 0.18 mg estradiol 90 day release pellets and divided into groups of six mice per treatment group. One of those groups received vehicle only (0.5% CMC+8% DMSO), and Compound B and Compound C each had 2 groups treated with either 10 or 100 mg/kg compound. Compounds were administered by oral gavage twice daily, except once daily on weekends/holidays for the first 21 days, and once daily after day 21. Tumors and bodyweight were measured twice weekly.

ERα [7] = target: T1, ERα; test: ER degradation, immunoblot of MCF-7 protein extracts; assay type: cell-based; conditions: 100 nM, 24 hours
Procedure: MCF-7 cells were treated with 100 nM anti-estrogen for 24 hours in serum-free medium and protein extracts immunoblotted with D12 antibody to ERα and β-actin (Santa Cruz Biotechnology). The numbers below the blots represent the optical density of ERα bands of each treatment relative to percent vehicle after normalization to β-actin.
Target sequence in this assay (P03372 whole entry): as the sequence (P03372 whole entry, looked up) above

PR = conditions: De Savi; cited from earlier work
[8] = system: estrogen-responsive reporter gene, ERE-tk109-Luc; test: Inhibition of E2-induced transcription, ERE-tk109-Luc reporter in MCF-7 cells; assay type: cell-based; conditions: Homo sapiens, MCF7; read-out: Inhibition of E2-induced transcription in breast cells, IC50
Procedure: Representative compounds were tested for their inhibitory activity of estrogen according to the assay methods described in Hodges-Gallagher, L., Valentine, C. V., El Bader, S. and Kushner, P. J. (2007) “Histone Deacetylase Inhibitors Enhance the Efficacy of Hormonal Therapy Agents on Breast Cancer Cells and Blocks Anti-estrogen-Driven Uterine Cell Proliferation” Breast Cancer Res Treat, November; 105(3):297-309. Specifically, MCF-7 cells were transiently transfected with an estrogen-responsive reporter gene, ERE-tk109-Luc. Transfected cells were treated with antiestrogens in hormone-depleted medium in the presence of 100 pM 17β-estradiol (E2) for 22 hours. Luciferase activity was normalized to activity of E2 alone and IC50's were calculated using the least squares fit method.
A representative result for inhibition of E2-induced transcription in breast cells (nM) is shown below in tabular form: […]

[9] = 100 nM dose, mean of n experiments

SMILES | Residual AP activity with 100 nM compound plus E2 (% of E2 alone) ([1]; 100 nM antiestrogen, 500 pM E2) [% E2] | Residual AP activity with 100 nM compound plus E2 (% of E2 alone) [1, 9] [% E2] | AP Antagonist Act. (% of E2) [1] | AP Agonist Act. (% of E2) [4] | Induction of Alkaline Phosphatase (AP) % E2 [4] [% E2] | Induction of AP activity in uterine cells (% E2) [4] [% E2] | further results
C[C@@H]1Cc2c([nH]c3ccccc23)[C@@H](c2ccc(OCCN3CC(CF)C3)cc2)N1CC(C)(C)F [Compound C, (1R,3R)-2-(2-fluoro-2-methylpropyl)-1-(4-(2-(3-(fluoromethyl)azetidin-1-yl)ethoxy)phenyl)-3-methyl-2,3,4,9-tetrahydro-1H-pyrido[3,4-b]indole] | 2.5 | 1.76 | 2.5 % of E2 | 3.1 % of E2 | 1.71 | 3.1 | ERα binding activity in words (ERα [2]): comparable activity to fulvestrant, Goodacre Compound 102, and Goodacre Compound 107; Oral drug exposure, free fraction taken into account [3]: substantially higher oral drug exposure; Relative change in ERα levels in breast cells % Veh (ERα [5]): 42 % Veh; Relative change in ERα levels in breast cells pIC50 (ERα [5]): 8.87; Effect on tumor size in xenografted mice [6]: outstandingly potent in shrinking human breast cancer xenografts
Oc1ccc2c(c1)CC[C@H](c1ccccc1)[C@@H]2c1ccc(OCCN2CCCC2)cc1 [Lasofoxifene, reference compound] | 83 | – | – | – | – | 86 | –
CCCN1CC(Oc2ccc([C@@H]3c4[nH]c5ccccc5c4C[C@@H](C)N3CC(C)(C)F)cc2)C1 [Compound B, (1R,3R)-2-(2-fluoro-2-methylpropyl)-3-methyl-1-(4-((1-propylazetidin-3-yl)oxy)phenyl)-2,3,4,9-tetrahydro-1H-pyrido[3,4-b]indole] | 1.96 | 1.56 | 1.96 % of E2 | 2.18 % of E2 | 1.78 | 2.18 | Estrogen receptor degradation in MCF-7 cells (immunoblot, FIG. 7) (ERα [7]): degrades the estrogen receptor; AP activity of ECC-1 cells co-treated with 500 pM 17β-estradiol, % of the activity 17β-estradiol would produce ([1]; co-treated with 500 pM 17β-estradiol): 1.96%; ERα binding activity in words (ERα [2]): comparable activity to fulvestrant, Goodacre Compound 102, and Goodacre Compound 107; ERα binding pIC50 (ERα [2]): 8.57; Oral bioavailability and half-life ([3]; BALB/c mice): high oral bioavailability and half-life; Oral drug exposure, free fraction taken into account [3]: better 24 hour drug exposure compared to other compounds; also recorded: substantially higher oral drug exposure; AP activity of ECC-1 cells normalized to the effect of 500 pM 17β-estradiol ([4]; compound alone): 2.18%; Relative change in ERα levels in breast cells % Veh (ERα [5]): 45 % Veh; Relative change in ERα levels in breast cells pIC50 (ERα [5]): 8.57; Estrogen receptor degradation in MCF-7 cells (in-cell western, FIG. 2) (ERα [5]; 24 hours): degrades the estrogen receptor; Effect on tumor size in xenografted mice [6]: shrinks MCF-7 (HER2/neu) tumors; also recorded: outstandingly potent in shrinking human breast cancer xenografts
C[C@@H]1Cc2c([nH]c3ccccc23)[C@@H](c2ccc(/C=C/C(=O)O)cc2)N1CC(C)(C)F [WO 2014/191726 Example 2] | – | – | – | – | – | – | PR agonist pIC50 (PR): <5.5
CCCN1CC(Oc2ccc([C@@H]3c4[nH]c5ccccc5c4C[C@@H](C)N3CC(C)(C)F)cc2F)C1 [Compound A, (1R,3R)-2-(2-fluoro-2-methylpropyl)-1-(3-fluoro-4-((1-propylazetidin-3-yl)oxy)phenyl)-3-methyl-2,3,4,9-tetrahydro-1H-pyrido[3,4-b]indole] | 3.15 | – | 3.15 % of E2 | 3.96 % of E2 | – | 3.96 | –
CCCN1CC(Oc2cc(F)c([C@@H]3c4[nH]c5ccccc5c4C[C@@H](C)N3CC(C)(C)F)c(F)c2)C1 [Goodacre Compound 107, (1R,3R)-1-(2,6-difluoro-4-((1-propylazetidin-3-yl)oxy)phenyl)-2-(2-fluoro-2-methylpropyl)-3-methyl-2,3,4,9-tetrahydro-1H-pyrido[3,4-b]indole, reference compound] | – | 1.03 | – | – | 0.00 | – | –
C[C@]12CC[C@@H]3c4ccc(O)cc4C[C@@H](CCCCCCCCC[S+]([O-])CCCC(F)(F)C(F)(F)F)[C@H]3[C@@H]1CC[C@@H]2O (stereo partly shown) [Fulvestrant, reference compound] | −2.2 | −0.09 | – | – | −0.04 | −0.13 | –
C[C@@H]1Cc2c([nH]c3ccccc23)[C@@H](c2c(F)cc(/C=C/C(=O)O)cc2F)N1CC(C)(C)F [AZD9496, (E)-3-(3,5-Difluoro-4-((1R,3R)-2-(2-fluoro-2-methylpropyl)-3-methyl-2,3,4,9-tetrahydro-1H-pyrido[3,4-b]indol-1-yl)phenyl)acrylic Acid] | – | – | – | 35 % of E2 | 39 | 35 | IC50 [8]: 1.3 nM; Estrogen-like activity as AP agonist and antagonist in comparison to Compounds A-D ([4]; AP agonist and antagonist modes): approximately 10 fold
C[C@@H]1Cc2c([nH]c3ccccc23)[C@@H](c2c(F)cc(OCCN3CC(CF)C3)cc2F)N1CC(C)(C)F [Compound D, (1R,3R)-1-(2,6-difluoro-4-(2-(3-(fluoromethyl)azetidin-1-yl)ethoxy)phenyl)-2-(2-fluoro-2-methylpropyl)-3-methyl-2,3,4,9-tetrahydro-1H-pyrido[3,4-b]indole, reference compound] | 4.07 | 3.98 | 4.07 % of E2 | 3.37 % of E2 | 4.45 | 3.37 | –
